{"source": "patent US6914045B2", "about": "“Glycopeptide antibiotics” (Wyeth Holdings Corporation, priority 2001, dated 2005)", "test_in_all_cases": "in vitro antibacterial evaluation, MIC by broth dilution", "type_in_all_cases": "cell-based", "key": {"[1]": {"tested_on": "Streptococcus sp.", "details": "broth dilution, 18 hours at 35° C.", "experimental": "(§1) Methods for in vitro Antibacterial Evaluation (Table 1)\n(§2) The minimum inhibitory concentration (MIC), the lowest concentration of the antibiotic which inhibits growth of the test organism, is determined by the broth dilution method using Muller-Hinton II […] (Baltimore Biological Laboratories) following the recommendations of the National Committee for Clinical Laboratory Standards [Methods for dilution antimicrobial susceptibility tests for bacteria that grow aerobically, approved standard M7-A2, National Committee for Clinical Laboratory Standards, Villanova, Pa.].\n(§3) An inoculum level of 5×10^5 CFU/mL, and a range of antibiotic concentrations (64-0.06 μg/mL) is used. […] The test organisms include a spectrum of Gram-positive bacteria comprised of Staphylococcus sp., Streptococcus sp. and Enterococcus sp. These organisms include recent clinical isolates that are resistant to methicillin, penicillin and/or vancomycin."}, "[2]": {"tested_on": "Staphylococcus sp.", "details": "broth dilution, 18 hours at 35° C.", "experimental": "as §1, §2, §3"}, "[3]": {"tested_on": "Enterococcus sp.", "details": "broth dilution, 18 hours at 35° C.", "experimental": "as §1, §2, §3"}, "[4]": {"tested_on": "Escherichia coli", "details": "18 hours at 35° C.", "outline": "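MIC is the lowest antibiotic concentration (tested 64-0.06 μg/mL) preventing growth of a 5×10^5 CFU/mL inoculum. Determined by broth dilution in Mueller-Hinton II medium following NCCLS standard M7-A2.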"}}, "note": "Like-named read-outs stand apart in the source and are kept apart here. Numbered stars: 1 amine (or outer) side, 2 acyl side, 3 side chain; on linkers, the order of the positions; unused ones are H or OH. Square brackets hold non-standard residues; d marks the D form. Peptide text beside a SMILES is read from it. X5 = N=C1NCC(C(O)[C@@H](N[*:1])C(=O)[*:2])N1; X4 = N=C1NCC(C(O)[C@H](N[*:1])C(=O)[*:2])N1; Cha = N[C@@H](CC1CCCCC1)C(=O)O; dCha = N[C@H](CC1CCCCC1)C(=O)O", "data": [{"molecule": "N=C1NCC(C(O)[C@@H]2NC(=O)[C@@H](CC3CCCCC3)NC(=O)[C@H](CC3CCCCC3)NC(=O)CNC(=O)[C@H](CO)NC(=O)[C@@H](C(O)C3CNC(=N)N3)NC2=O)N1", "note": "(stereo partly drawn) [Example 58, Cyclo[3-cyclohexylalanyl-3-cyclohexylalanyl-3-(2-iminoimidazolidin-4-yl)seryl-3-(2-iminoimidazolidin-4-yl)-serylserylglycyl]] (cyclo([Cha][dCha][X4][X5]SG))", "values": [{"measurement": "MIC", "setting": "[1]; read-out: MIC Streptococcus agalactiae (GC 4564)", "result": 16, "unit": "µg/mL"}, {"measurement": "MIC", "setting": "[1]; read-out: MIC Streptococcus pneumoniae (ATCC 6301)", "result": 8, "unit": "µg/mL"}, {"measurement": "MIC", "setting": "[1]; read-out: MIC Streptococcus pneumoniae (GC 1894)", "result": 8, "unit": "µg/mL"}, {"measurement": "MIC", "setting": "[1]; read-out: MIC Streptococcus pneumoniae (GC 4565)", "result": 16, "unit": "µg/mL"}, {"measurement": "MIC", "setting": "[1]; read-out: MIC Streptococcus pyogenes (GC 4563)", "result": 8, "unit": "µg/mL"}, {"measurement": "MIC Streptococcus pneumoniae (ATCC 6301)", "setting": "[1]; strain ATCC 6301", "result": 8, "unit": "µg/mL"}, {"measurement": "MIC Streptococcus pneumoniae (GC 1894)", "setting": "[1]; strain GC 1894", "result": 8, "unit": "µg/mL"}, {"measurement": "MIC Streptococcus pyogenes (GC 4563)", "setting": "[1]; strain GC 4563", "result": 8, "unit": "µg/mL"}, {"measurement": "MIC Streptococcus agalactiae (GC 4564)", "setting": "[1]; strain GC 4564", "result": 16, "unit": "µg/mL"}, {"measurement": "MIC Streptococcus pneumoniae (GC 4565)", "setting": "[1]; strain GC 4565", "result": 16, "unit": "µg/mL"}, {"measurement": "MIC", "setting": "[2]; Staphylococcus, strain GC 4543, read-out: MIC Staphylococcus aureus-SMITH (GC 4543)", "result": 4, "unit": "µg/mL"}, {"measurement": "MIC", "setting": "[2]; Staphylococcus, strain GC 4547, read-out: MIC Coagulase Negative Staphylococcus (GC 4547)", "result": 4, "unit": "µg/mL"}, {"measurement": "MIC", "setting": "[2]; Staphylococcus, strain GC 4548, read-out: MIC Coagulase Negative Staphylococcus (GC 4548)", "result": 4, "unit": "µg/mL"}, {"measurement": "MIC", "setting": "[2]; Staphylococcus, strain GC 4549, read-out: MIC Coagulase Negative Staphylococcus (GC 4549)", "result": 4, "unit": "µg/mL"}, {"measurement": "MIC", "setting": "[2]; Staphylococcus, strain GC 4551, read-out: MIC Coagulase Negative Staphylococcus (GC 4551)", "result": 8, "unit": "µg/mL"}, {"measurement": "MIC", "setting": "[2]; strain ATCC 29213, read-out: MIC Staphylococcus aureus (ATCC 29213)", "result": 16, "unit": "µg/mL"}, {"measurement": "MIC", "setting": "[2]; strain GC 1131, read-out: MIC Staphylococcus aureus (GC 1131)", "result": 8, "unit": "µg/mL"}, {"measurement": "MIC", "setting": "[2]; strain GC 3051, read-out: MIC Staphylococcus aureus (GC 3051)", "result": 16, "unit": "µg/mL"}, {"measurement": "MIC", "setting": "[2]; strain GC 3053, read-out: MIC Staphylococcus aureus (GC 3053)", "result": 32, "unit": "µg/mL"}, {"measurement": "MIC", "setting": "[2]; strain GC 4541, read-out: MIC Staphylococcus aureus (GC 4541)", "result": 16, "unit": "µg/mL"}, {"measurement": "MIC", "setting": "[2]; strain GC 4542, read-out: MIC Staphylococcus aureus (GC 4542)", "result": 16, "unit": "µg/mL"}, {"measurement": "MIC", "setting": "[2]; strain GC 4544, read-out: MIC Staphylococcus aureus (GC 4544)", "result": 16, "unit": "µg/mL"}, {"measurement": "MIC", "setting": "[2]; strain GC 4545, read-out: MIC Staphylococcus aureus (GC 4545)", "result": 8, "unit": "µg/mL"}, {"measurement": "MIC", "setting": "[2]; strain GC 4546, read-out: MIC Staphylococcus haemolyticus (GC 4546)", "result": 4, "unit": "µg/mL"}, {"measurement": "MIC Enterococcus avium (GC 4558)", "setting": "[3]; Enterococcus avium (GC 4558)", "result": 32, "unit": "µg/mL"}, {"measurement": "MIC Enterococcus faecalis (ATCC 29212)", "setting": "[3]; Enterococcus faecalis (ATCC 29212)", "result": 64, "unit": "µg/mL"}, {"measurement": "MIC Enterococcus faecalis (GC 4552)", "setting": "[3]; Enterococcus faecalis (GC 4552)", "result": 64, "unit": "µg/mL"}, {"measurement": "MIC Enterococcus faecalis (GC 4553)", "setting": "[3]; Enterococcus faecalis (GC 4553)", "result": 32, "unit": "µg/mL"}, {"measurement": "MIC Enterococcus faecalis (GC 4554)", "setting": "[3]; Enterococcus faecalis (GC 4554)", "result": 64, "unit": "µg/mL"}, {"measurement": "MIC Enterococcus faecalis (GC 6189)", "setting": "[3]; Enterococcus faecalis (GC 6189)", "result": 64, "unit": "µg/mL"}, {"measurement": "MIC Enterococcus faecium (GC 2243)", "setting": "[3]; Enterococcus faecium (GC 2243)", "result": 32, "unit": "µg/mL"}, {"measurement": "MIC Enterococcus faecium (GC 4556)", "setting": "[3]; Enterococcus faecium (GC 4556)", "result": 64, "unit": "µg/mL"}, {"measurement": "MIC Enterococcus faecium (GC 4557)", "setting": "[3]; Enterococcus faecium (GC 4557)", "result": 8, "unit": "µg/mL"}, {"measurement": "MIC", "setting": "[3]; read-out: MIC Enterococcus avium (GC 4558)", "result": 32, "unit": "µg/mL"}, {"measurement": "MIC", "setting": "[3]; read-out: MIC Enterococcus faecalis (ATCC 29212)", "result": 64, "unit": "µg/mL"}, {"measurement": "MIC", "setting": "[3]; read-out: MIC Enterococcus faecalis (GC 2242)", "result": 64, "unit": "µg/mL"}, {"measurement": "MIC", "setting": "[3]; read-out: MIC Enterococcus faecalis (GC 2691)", "result": 64, "unit": "µg/mL"}, {"measurement": "MIC", "setting": "[3]; read-out: MIC Enterococcus faecalis (GC 3059)", "result": 64, "unit": "µg/mL"}, {"measurement": "MIC", "setting": "[3]; read-out: MIC Enterococcus faecalis (GC 4552)", "result": 64, "unit": "µg/mL"}, {"measurement": "MIC", "setting": "[3]; read-out: MIC Enterococcus faecalis (GC 4553)", "result": 32, "unit": "µg/mL"}, {"measurement": "MIC", "setting": "[3]; read-out: MIC Enterococcus faecalis (GC 4554)", "result": 64, "unit": "µg/mL"}, {"measurement": "MIC", "setting": "[3]; read-out: MIC Enterococcus faecalis (GC 6189)", "result": 64, "unit": "µg/mL"}, {"measurement": "MIC", "setting": "[3]; read-out: MIC Enterococcus faecium (GC 2243)", "result": 32, "unit": "µg/mL"}, {"measurement": "MIC", "setting": "[3]; read-out: MIC Enterococcus faecium (GC 4556)", "result": 64, "unit": "µg/mL"}, {"measurement": "MIC", "setting": "[3]; read-out: MIC Enterococcus faecium (GC 4557)", "result": 8, "unit": "µg/mL"}, {"measurement": "MIC Enterococcus faecalis (GC 2242)", "setting": "[3]; strain GC 2242", "result": 64, "unit": "µg/mL"}, {"measurement": "MIC Enterococcus faecalis (GC 2691)", "setting": "[3]; strain GC 2691", "result": 64, "unit": "µg/mL"}, {"measurement": "MIC Enterococcus faecalis (GC 3059)", "setting": "[3]; strain GC 3059", "result": 64, "unit": "µg/mL"}, {"measurement": "MIC", "setting": "[4]; Escherichia coli (ATCC 25922), read-out: MIC Escherichia coli (ATCC 25922)", "result": 16, "unit": "µg/mL"}, {"measurement": "MIC", "setting": "[4]; Escherichia coli, read-out: MIC Escherichia coli (GC 4559)", "result": 8, "unit": "µg/mL"}, {"measurement": "MIC", "setting": "[4]; Escherichia coli, read-out: MIC Escherichia coli (GC 4560)", "result": 16, "unit": "µg/mL"}]}]}
